Measured values reported in PMC11013010, “Serendipitous Identification of Azine Anticancer Agents Using a Privileged Scaffold Morphing Strategy” (Molecules, 2024).
Converted amounts (≈) assume the structure as drawn. “And” between values parts separate entries of the source, which are not always exact repeats. Identical values can stand only once.

What was measured:
[1] = Cytotoxicity assay (CellTiter Glo) on normal fibroblasts; type: cell-based, human; details: human, FB789 normal fibroblast cells
Protocol: (§1) Cell-based assays were carried out on the normal human fibroblast FB789 cell line (kindly provided by Elena Dell’Ambra from IRCCS Istituto Dermopatico dell’Immacolata, Rome), on the Huh7 hepatocarcinoma cell line (kindly provided by Istituto Toscano Tumori, Core Research Laboratory, Siena, Italy), on the Caco-2 adenocarcinoma colorectal cell line (ATCC catalog. n. HTB-37), on the suspension H9 cell line (repository code ARP0001, NIBSC Centre for AIDS reagents) and on the adherent TZM-bl cell line (repository code ARP5011, NIBSC Centre for AIDS reagents).
(§2) The FB789 was cultured in Dulbecco’s Modified Eagle Medium (DMEM) and Ham’s F10 in a ratio of 50%, supplemented with 10% FBS, 2 mM L-glutamine, and 10,000 unit/mL penicillin/streptomycin.
(§3) The cytotoxicity of all investigated compounds was assayed in all cells lines as previously described. Briefly, confluent cells were treated with decreasing compound concentrations for 48h. The final DMSO concentration used was never greater than 0.5% v/v. Each experiment was performed in duplicate and repeated in two independent experiments. Cell viability was calculated using the CellTiter Glo 2.0 kit (Promega, Madison, WI, USA) and luminescence values signal obtained from cells treated with serial dilution of the compounds were measured through the GloMax® Discover Multi mode Microplate Reader (Promega) and elaborated with GraphPad PRISM software version 9.0 (La Jolla, San Diego, CA, USA). […] A non-toxic dose of each compound was used as the starting concentration in the antiviral activity assay.

FB789 cells = assay: as above; type: cell-based, human; details: pyrimidines and pyridines, read out at 48 h, mean ± SD
Protocol: as §1, §2, §3

[2] = Parallel artificial membrane permeability assay (PAMPA); type: in vitro ADME; details: GI, pH 7.4, 5 h, RT
Protocol: To evaluate the apparent permeability of tested compounds, a DMSO stock solution [1 mM] of each derivative was prepared and then diluted 1:1 v/v with phosphate buffer (PBS 25 mM, pH 7.4) in order to make the donor solutions. According to the protocol already published, the gastrointestinal (GI) phospholipidic bilayer was mimed through adding a 1% w/v dodecane solution of phosphatidylcholine (PC). The sandwich plates were assembled and incubated for 5 h at RT. At the end time point, the amount of compound passed through the phospholipid bilayer was measured using HPLC-UV/MS. Finally, apparent permeability (Papp) and membrane retention (MR%) were calculated as previously described.

[3] = Cytotoxicity assay (CellTiter Glo) on colon epithelial carcinoma cells; details: human, Caco-2
Caco-2 cells = assay: as above; details: for TSI Caco-2: ratio CC50 FB789 / CC50 Caco-2
[4] = Kinetic aqueous solubility; type: physicochemical; details: Milli-Q water, 25 °C, kinetic from dmso stock; for solubility kinetic at 3 h: water, Mill-Q H2O, RT, LOD 0.1 µg/mL
Protocol: For the quantitative analysis, a UV/LC-MS system was used. LC analysis was performed through an Agilent 1260 Infinity HPLC-DAD system (Agilent Technologies, Palo Alto, CA, USA), which constituted of a vacuum solvent degassing unit, a binary high-pressure gradient pump, and a UV detector, that was connected to an Agilent MSD 6130 system (Agilent Technologies, Palo Alto, CA, USA). The Agilent 1260 series mass spectra detection (MSD) single-quadrupole instrument was equipped with the orthogonal spray API-ES (Agilent Technologies, Palo Alto, CA, USA). Nitrogen was used as a nebulizing and drying gas. Chromatographic separation was performed using a Phenomenex Kinetex EVO C18-100 Å (150 × 4.6 mm, 5 μm particle size) at 25 °C and a gradient elution with a binary solution; eluent A was H2O, while eluent B consisted of ACN (both eluents were acidified with FA 0.1% v/v). […] UV detection was monitored at 254 nm. Spectra were acquired over the scan range m/z 100–1500 in positive mode.
DMSO-stock compounds’ solutions were diluted with Mill-Q H2O to a final concentration of 200 μM. The percentage of DMSO never exceeded 2% v/v. Samples were incubated under gentle shaking at 25 °C (RT) conditions for 3 h. The suspensions were filtered using a 0.45 µm nylon filter (Acrodisc, VWR, Radnor, PE, USA), and the amount of solubilized compound was determined with the HPLC-UV-MS method reported above. The quantification of the solubilized compound was made with the appropriate calibration curve realized with stock solutions in DMSO (0.1–100 µg/mL). The limit of detection (LOD) was quantified at 0.1 µg/mL.

H9 cells = assay: Cytotoxicity assay (CellTiter Glo) on lymphoma cells; details: ratio CC50 FB789 / CC50 H9
[5] = as above; details: human
Plasma stability assay = type: in vitro ADME; details: human plasma, 24 h, 37 °C; % of Time 0
Protocol: A DMSO solution of each compound was incubated at a final concentration of 100 µM at 37 °C under shaking with HEPES buffer (25 mM, 140 mM NaCl, pH 7.4) and human plasma. At time 0 and after 24 h, samples were collected from the reaction mixtures and treated with cold ACN. After centrifugation at 5000 rpm for 10 min, the supernatant was collected, and the amount of unmodified compound was determined using the HLPC-UV/MS method described above. Modified compounds were calculated using time zero as 100% of the unmodified compound.

Huh7 cells = assay: Cytotoxicity assay (CellTiter Glo) on hepatocarcinoma cells; type: cell-based; details: for TSI Huh7: ratio CC50 FB789 / CC50 Huh7
Protocol: as §1
(§4) High glucose Dulbecco’s Modified Eagle Medium with sodium pyruvate and L-glutamine (DMEM; Euroclone) was used to grow Huh-7 and TZM-bl. Minimum Essential Eagle Medium (EMEM; Euroclone) was used to propagate Caco-2. DMEM and EMEM were supplemented with 10% fetal bovine serum (FBS; Euroclone) and 1% penicillin/streptomycin (Pen/Strep, Euroclone). The growth medium with a lower concentration of FBS (1%) was used for viral propagation, cytotoxic and antiviral experiments in adherent cell lines. […] All cell lines were grown at 37 °C in a 5% CO2 atmosphere in a humidified incubator.
as §3

[6] = as above; type: cell-based; details: human, Huh7 hepatocarcinoma cells, Huh7 hepatocarcinoma
Protocol: as §1, §4, §3

[7] = Metabolic stability assay with human liver microsomes; type: in vitro ADME; details: 1 h, 37 °C, 50 µM
Protocol: A DMSO solution of selected compounds was incubated in the presence of phosphate buffer (25 mM, pH 7.4), human liver microsomal protein (200 µg/mL), and an NADPH regenerating system in MgCl2 (48 mM) at a final concentration of 50 µM. The metabolic reactions were conducted for 1 h under shaking at 37 °C and then stopped by adding cold acetonitrile (ACN). Centrifuging the mixtures at 5000 rpm, the supernatant was separated, dried under nitrogen flow, and finally suspended in methanol (MeOH). The amount of the parent drug and the metabolites were determined as previously described.

DENV = DENV antiviral yield reduction assay in Huh7; details: read-out: potency on DENV; flavivirus DENV
WNV = WNV antiviral yield reduction assay in Huh7; details: read-out: potency on WNV; flavivirus WNV
SARS-CoV-2 = system: SARS-CoV-2; set-up: method as in PMID 36557962; details: half-maximal concentration inhibiting 50% of virus replication; cited from earlier work
[8] = pyrimidines and pyridines, read out at 48 h, mean ± SD
[9] = triazines 1-9, read-out 48 h, Cell-Titer Glo
[10] = 21a vs triazine 4, 33b vs triazine 6

Cc1cccc(/C=N/Nc2cc(Nc3ccc(F)cc3)nc(N3CCOCC3)c2)c1 [Compound 38b]
CC50 at 48 h [1, 8]: 90 ± 9 µM
CC50 FB789 (FB789 cells): very low cytotoxic effect
Papp at 5 h, 0.5 mM [2]: 6.35 ± 0.67 ×10⁻⁶ cm/s
CC50 at 48 h [3]: 8 ± 3 µM
TSI Caco-2 (Caco-2 cells; pyrimidines and pyridines): 11.3
solubility at 3 h ([4]; log of kinetic water solubility, read-out: LogS (converted)): 1.35 µM (≈ 0.547 µg/mL)
solubility kinetic at 3 h [4]: 0.54 µg/mL (≈ 1.33 µM)
TSI H9 (H9 cells; pyrimidines and pyridines): 5.0
CC50 at 48 h [5]: 18 ± 4 µM
Plasmatic Stability (Plasma stability assay): 87.13 ± 0.48%
TSI Huh7 (Huh7 cells; pyrimidines and pyridines): 10.0
CC50 at 48 h [6, 8]: 9 ± 6 µM
Metabolic Stability [7]: 97.93 ± 0.46%

Oc1ccccc1/C=N/Nc1nc(Nc2ccc(F)cc2)nc(N2CCOCC2)n1 [Compound 4]
IC50 (DENV): 2 µM
CC50 at 48 h [1, 9]: 11 ± 3 µM
IC50 (WNV): 1.1 µM
CC50 at 48 h [3]: 3 ± 1 µM
TSI Caco-2 (Caco-2 cells; triazines 1-9): 3.7
TSI H9 (H9 cells; triazines 1-9): 5.5
CC50 at 48 h [5]: 2 ± 1 µM
TSI Huh7 (Huh7 cells; triazines 1-9): 1.2
CC50 at 48 h ([6]; triazines 1-9, read-out 48 h): 9 ± 1 µM

Oc1ccccc1/C=N/Nc1cc(Nc2ccc(F)cc2)nc(Nc2ccc(F)cc2)n1 [Compound 19a]
CC50 at 48 h [1, 8]: 14 ± 3 µM
MR (membrane retention) [2]: 20.99% and 20.91 ± 1.75%
Papp at 5 h, 0.5 mM [2]: 3.59 ± 0.21 ×10⁻⁶ cm/s
CC50 at 48 h [3]: 2 ± 1 µM
TSI Caco-2 (Caco-2 cells; pyrimidines and pyridines): 7.0
solubility kinetic at 3 h [4]: < 0.1 µg/mL
TSI H9 (H9 cells; pyrimidines and pyridines): 0.5
CC50 at 48 h [5]: 31 ± 8 µM
Plasmatic Stability (Plasma stability assay): 86.64 ± 0.17%
TSI Huh7 (Huh7 cells; pyrimidines and pyridines): 14.0
CC50 at 48 h [6, 8]: 1 ± 0.3 µM
Metabolic Stability [7]: >99.9%

Cc1cccc(/C=N/Nc2cc(Nc3ccc(F)cc3)nc(Nc3ccc(F)cc3)c2)c1 [Compound 33b]
CC50 at 48 h [1, 8]: 390 ± 30 µM
CC50 FB789 (FB789 cells): very low cytotoxic effect
MR (membrane retention) [2]: 46.84% and 46.84 ± 4.99%
Papp at 5 h, 0.5 mM [2]: 1.38 ± 0.6 ×10⁻⁶ cm/s
CC50 at 48 h [3]: 11 ± 9 µM
TSI Caco-2 (Caco-2 cells; pyrimidines and pyridines): 35.5
solubility kinetic at 3 h [4]: < 0.1 µg/mL
TSI H9 (H9 cells; pyrimidines and pyridines): 17.0
CC50 at 48 h [5]: 23 ± 7 µM
Plasmatic Stability (Plasma stability assay): 81.01 ± 3.28%
TSI Huh7 (Huh7 cells; pyrimidines and pyridines): 18.6
CC50 at 48 h [6, 8]: 21 ± 12 µM
Metabolic Stability [7]: >99.9%

Cc1cccc(/C=N/Nc2cc(Nc3ccc(F)cc3)nc(Nc3ccc(F)cc3)n2)c1 [Compound 19b]
CC50 at 48 h [1, 8]: 61 ± 9 µM
MR (membrane retention) [2]: 27.42% and 27.42 ± 1.22%
Papp at 5 h, 0.5 mM [2]: 5.64 ± 0.59 ×10⁻⁶ cm/s
CC50 at 48 h [3]: 4 ± 1 µM
TSI Caco-2 (Caco-2 cells; pyrimidines and pyridines): 15.3
solubility kinetic at 3 h [4]: < 0.1 µg/mL
TSI H9 (H9 cells; pyrimidines and pyridines): 1.3
CC50 at 48 h [5]: 48 ± 3.5 µM
Plasmatic Stability (Plasma stability assay): >99.9%
TSI Huh7 (Huh7 cells; pyrimidines and pyridines): 10.2
CC50 at 48 h [6, 8]: 6 ± 1 µM
Metabolic Stability [7]: 98.31 ± 0.11%

Oc1ccccc1/C=N/Nc1cc(Nc2ccc(F)cc2)nc(N2CCOCC2)n1 [Compound 21a]
CC50 at 48 h [1, 8]: 10 ± 5 µM
MR (membrane retention) [2]: 26.03 ± 6.17%
Papp at 5 h, 0.5 mM [2]: 4.8 ± 0.73 ×10⁻⁶ cm/s
CC50 at 48 h [3]: 2 ± 0.4 µM
fold higher TSI than reference triazine, Caco-2 (Caco-2 cells; [10]): 1.4 fold
TSI Caco-2 (Caco-2 cells; pyrimidines and pyridines): 5.0
solubility kinetic at 3 h [4]: < 0.1 µg/mL
TSI H9 (H9 cells; pyrimidines and pyridines): no selectivity
CC50 at 48 h [5]: 11 ± 2 µM
Plasmatic Stability (Plasma stability assay): 96.93 ± 2.73%
fold higher TSI than reference triazine, Huh7 (Huh7 cells; [10]): 2.8 fold
TSI Huh7 (Huh7 cells; pyrimidines and pyridines): 3.3
CC50 at 48 h [6, 8]: 3 ± 1 µM
Metabolic Stability [7]: >99.9%

Oc1ccccc1/C=N/Nc1nc(N2CCOCC2)nc(N2CCOCC2)n1 [Compound 1]
CC50 at 48 h [1, 9]: 30 ± 6 µM
CC50 at 48 h [3]: > 400 µM
TSI Caco-2 (Caco-2 cells; triazines 1-9): <0.1
TSI H9 (H9 cells; triazines 1-9): <0.3
CC50 at 48 h [5]: > 100 µM
TSI Huh7 (Huh7 cells; triazines 1-9): <0.3
CC50 at 48 h ([6]; triazines 1-9, read-out 48 h): > 100 µM
IC50 (SARS-CoV-2): 12.1 µM
